Assay results taken from US20240182526A1, “COMPOSITIONS AND METHODS FOR MODULTING INFLAMMATORY AND DEGENERATIVE DISORDER” (University of Southern California, priority 2021, published 2024).
“Also recorded” adds a separate entry of the source.

Experiments:
[1] = test system: ADAMTS4, ADAMTS5 and MMP13 transcription; experiment: qPCR of matrix-degrading genes in OSM-stimulated pig articular chondrocytes; type: cell-based; details: 48 hours
Protocol: Quantitative Real-Time PCR. Power SYBR Green (Applied Biosystems) RT-PCR amplification and detection was performed using an Applied Biosystems Step One Plus Real-Time PCR machine. The comparative Ct method for relative quantification (2-ΔΔCt) was used to quantitate gene expression. TBP (TATA-box binding protein) was used for gene normalization and expressed relative to a calibrator (sample in each set with lowest expression). Q-PCR for was conducted using the following primers: human: TBP forward, 5′ GATGGACGTTCGGTTTAGG 3′ (SEQ ID NO:28); TBP reverse, 5′ AGCAGCACAGTACGAGCAA 3′ (SEQ ID NO:29), MMP13 forward, 5′ […] 3′(SEQ ID NO:30); MMP13 reverse, 5′ GAACCCCGCATCTTGGCTT 3′ (SEQ ID NO:31), ADAMTS5 forward 5′ […] 3′ (SEQ ID NO:32); ADAMTS5 reverse, 5′ […] 3′ (SEQ ID NO:33), ADAMTS4 forward 5′ […] 3′ (SEQ ID NO:34); ADAMTS4 reverse, 5′ […] 3′ (SEQ ID NO:35), Collagen II forward, 5′ […] 3′ (SEQ ID NO:36); Collagen II reverse 5′ […] 3′ (SEQ ID NO:37); Aggrecan forward, 5′ AGGCAGCGTGATCCTTACC 3′ (SEQ ID NO:38); Aggrecan reverse, 5′ […] 3′ (SEQ ID NO:39). Cells were treated with 10 ng/mL OSM and/or with 5 μM SRC (SU6656) inhibitor, 10 ng/mL OSM and/or 50 ng/mL WT/F814 plasmids; 10 ng/mL OSM and/or 100 or 300 ug/mL of peptide QQpYF (Evseenko lab, Thermo Scientific); 10 uM R805 and/or 10 ng/mL OSM.

[2] = test system: pSRC; experiment: Western blot of pSRC in pig articular chondrocytes; type: cell-based; details: pig articular chondrocytes, OSM, 4 and 24 hours
Protocol: For standard western blot, treated and non-treated cells were lysed in RIPA Lysis and Extraction Buffer (Pierce, Rockford, IL) containing protease inhibitors (Pierce) followed by sonication with a 15-second pulse at a power output of 2 using the VirSonic 100 (SP Industries Company, Warminster, PA). Protein concentrations were determined by BCA protein assay (Pierce). Proteins were resolved with SDS-PAGE utilizing 4-15% Mini-PROTEAN TGX Precast Gels and transferred to Trans-Blot Turbo Transfer Packs with a 0.2-μm pore-size nitrocellulose membrane. The SDS-PAGE running buffer, 4-15% Mini-PROTEAN TGX Precast Gels, Trans-Blot Turbo Transfer Packs with a 0.2-μm pore-size nitrocellulose membrane was purchased from Biorad (Hercules, CA). Nitrocellulose membranes were blocked in 5% nonfat milk in 0.05% (v/v) Tween 20 (PBST) (Corning, Manassas, VA). Membranes were then incubated with primary antibodies p-gp130 Y814 (Evseenko lab, AbClonal), p-AKT (cat #4060, Cell Signaling), p-ERK 1/2 (cat #9106, Cell Signaling), p-Y416-SRC (cat #1246F, Novus Biologicals), p-gp130 (cat #1453R, Bioss USA) and p-NFκBp65 (cat #8242, Cell Signaling), and/or YAP1 (cat #4912, Cell Signaling). Histone H3 (cat #9515, Cell Signaling) was used as loading control. After washing in PBS containing 0.05% (v/v) Tween 20 (PBST), membranes were incubated with rabbit (cat #31460, Thermo Scientific) or mouse IgG-HRP (cat #31430, Thermo Scientific) secondary antibodies. After washing, membranes were developed with the Clarity Western ECL Blotting Substrate (Hercules, CA). Quantification of blots was performed using ImageJ 1.44 followed by Prism9 for analysis.
The studies delineate that gp130 Y814 regulates SRC downstream signaling; since SRC is known to associate with gp130, it was hypothesized that gp130 and SRC are capable of physically interacting on Y814 and hindering this interaction will prevent SRC from signaling. In order to impede this interaction, experiments were performed using an innovative peptide library screen with short and overlapping peptides mimicking the motif of gp130 around Y814 that were individually tested for pSRC downregulation; these peptides ranged from 4-15 amino acids. The peptides contained a protein sequence stretch of consecutive amino acids surrounding gp130 Y814 residue. To test their efficacy, pig articular chondrocytes were stimulated with or without OSM in presence or absence of the peptides followed by co-immunoprecipitation to determine interaction and western blot detecting pSRC activity. […] Due to sequence specificity, the peptide is capable of discriminating among other gp130 regions serving as a competitive inhibitor.

## Cc1ccc(-c2csc(NC(=O)c3ccccn3)n2)cc1 [Peptide R805]
[1]
  OSM-induced transcription of matrix-degrading genes (ADAMTS4, ADAMTS5, MMP13), qPCR: able to decrease the MMP13 and ADAMTS4/5 gene expression
[2]
  protein levels of pSRC after OSM stimulation: markedly suppressed; also recorded: prevents pro-inflammatory signaling in OSM-stimulated pig articular chondrocytes
